Data as given in US20240368127A1, “HSD17B13 INHIBITORS AND USES THEREOF” (FL2022-001, Inc., priority 2021, published 2024).

Molecular target: T1, Recombinant human HSD17B13 enzyme (Homo sapiens, UniProt Q7Z5P4)
T1 sequence (Q7Z5P4 20-300): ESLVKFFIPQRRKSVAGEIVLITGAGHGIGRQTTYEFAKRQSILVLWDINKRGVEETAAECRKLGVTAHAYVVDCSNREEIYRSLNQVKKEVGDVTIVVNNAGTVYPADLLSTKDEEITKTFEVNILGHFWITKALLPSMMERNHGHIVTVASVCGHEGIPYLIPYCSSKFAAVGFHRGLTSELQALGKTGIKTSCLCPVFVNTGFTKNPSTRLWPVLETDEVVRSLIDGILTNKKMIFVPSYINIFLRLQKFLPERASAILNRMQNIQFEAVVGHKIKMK
Assay: HSD17b13 NAD(P)H-Glo biochemical assay
Details: 50 μM estradiol, 1 mM NAD+, 37° C. for 3 hours; read-out: HSD17β13 IC50
Procedure, shortened: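 Enzyme preincubated with inhibitor 20 min at RT in 20 mM Tris pH7.4, 0.002% Tween-20, 0.02% BSA, then reacted 3 h at 37° C with 50 μM estradiol and 1 mM NAD+ (final). NADH formation read by NAD(P)H-Glo luminescence after 1 h at RT.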

Compound | IC50 [nM]
Cn1nc(-c2cc(C(F)(F)F)c(F)c(O)c2F)c2cnc(N3CCC[C@H]3Cc3ccccc3)nc21 [Compound 5.17, (S)-3-(6-(2-Benzylpyrrolidin-1-yl)-1-methyl-1H-pyrazolo[3,4-d]pyrimidin-3-yl)-2,6-difluoro-5-(trifluoromethyl)phenol] | ≤ 100
CS(=O)(=O)N1CCN(c2ncc3c(-c4cc(C(F)(F)F)c(F)c(O)c4F)n[nH]c3n2)[C@H](Cc2ccccc2)C1 [Compound 5.18, (R)-3-(6-(2-Benzyl-4-(methylsulfonyl)piperazin-1-yl)-1H-pyrazolo[3,4-d]pyrimidin-3-yl)-2,6-difluoro-5-(trifluoromethyl)phenol] | ≤ 100
Cn1nc(-c2cc(C(F)(F)F)c(F)c(O)c2F)c2cnc(N3CCC3Cc3ccccc3)nc21 (stereo not drawn) [Compound 5.19, 3-(6-(2-Benzylazetidin-1-yl)-1-methyl-1H-pyrazolo[3,4-d]pyrimidin-3-yl)-2,6-difluoro-5-(trifluoromethyl)phenol] | ≤ 100
Cc1ccc(C[C@@H]2COCCN2c2ncc3c(-c4cc(C(F)(F)F)c(F)c(O)c4F)nn(C)c3n2)cc1 [Compound 5.21, (R)-2,6-Difluoro-3-(1-methyl-6-(3-(4-methylbenzyl)morpholino)-1H-pyrazolo[3,4-d]pyrimidin-3-yl)-5-(trifluoromethyl)phenol] | ≤ 100
CN1CCN(c2ncc3c(-c4cc(C(F)(F)F)c(F)c(O)c4F)nn(C)c3n2)[C@H](Cc2ccccc2)C1 [Compound 5.26, (R)-3-(6-(2-Benzyl-4-methylpiperazin-1-yl)-1-methyl-1H-pyrazolo[3,4-d]pyrimidin-3-yl)-2,6-difluoro-5-(trifluoromethyl)phenol] | ≤ 100
Cn1nc(-c2cc(C(F)(F)F)c(F)c(O)c2F)c2cnc(NC3(Cc4ccccc4)CCC3)nc21 [Compound 5.27, 3-(6-((1-Benzylcyclobutyl)amino)-1-methyl-1H-pyrazolo[3,4-d]pyrimidin-3-yl)-2,6-difluoro-5-(trifluoromethyl)phenol] | ≤ 100

Next, values leading:

IC50 [nM] | Compound
≤ 100 | Cn1nc(-c2cc(C(F)(F)F)c(F)c(O)c2F)c2cnc(N3CCCC[C@H]3Cc3ccccc3)nc21 [Compound 5.16, (S)-3-(6-(2-Benzylpiperidin-1-yl)-1-methyl-1H-pyrazolo[3,4-d]pyrimidin-3-yl)-2,6-difluoro-5-(trifluoromethyl)phenol]
≤ 100 | Oc1c(F)c(-c2n[nH]c3nc(N4CCOC[C@H]4Cc4ccccc4)ncc23)cc(C(F)(F)F)c1F [Compound 5.20, (R)-3-(6-(3-Benzylmorpholino)-1H-pyrazolo[3,4-d]pyrimidin-3-yl)-2,6-difluoro-5-(trifluoromethyl)phenol]
≤ 100 | CS(=O)(=O)N1CCN(c2ncc3c(-c4cc(C(F)(F)F)c(F)c(O)c4F)n[nH]c3n2)C[C@@H]1Cc1ccccc1 [Compound 5.22, (S)-3-(6-(3-Benzyl-4-(methylsulfonyl)piperazin-1-yl)-1H-pyrazolo[3,4-d]pyrimidin-3-yl)-2,6-difluoro-5-(trifluoromethyl)phenol]
≤ 100 | Cn1nc(-c2cc(C(F)(F)F)c(F)c(O)c2F)c2cnc(N3CCOC[C@H]3Cc3ccc(F)cc3)nc21 [Compound 5.23, (R)-2,6-Difluoro-3-(6-(3-(4-fluorobenzyl)morpholino)-1-methyl-1H-pyrazolo[3,4-d]pyrimidin-3-yl)-5-(trifluoromethyl)phenol]
≤ 100 | Cn1nc(-c2cc(C(F)(F)F)c(F)c(O)c2F)c2cnc(N3CCOC[C@H]3Cc3cccc(F)c3)nc21 [Compound 5.24, (R)-2,6-Difluoro-3-(6-(3-(3-fluorobenzyl)morpholino)-1-methyl-1H-pyrazolo[3,4-d]pyrimidin-3-yl)-5-(trifluoromethyl)phenol]
≤ 100 | Cn1nc(-c2cc(C(F)(F)F)c(F)c(O)c2F)c2cnc(N3CCOC[C@H]3Cc3ccccc3F)nc21 [Compound 5.25, (R)-2,6-Difluoro-3-(6-(3-(2-fluorobenzyl)morpholino)-1-methyl-1H-pyrazolo[3,4-d]pyrimidin-3-yl)-5-(trifluoromethyl)phenol]
